Reference: the NIST ThermoML archive (doi:10.1021/je030177j)
Numbers after ± are expanded uncertainties.

Details: Liquid, Capillary tube (Ostwald / Ubbelohde) method

O [water]
viscosity [mPa·s]
Details | 297.88 K | 319.09 K | 340.98 K | 370.39 K | 408.77 K | 447.38 K | 483.66 K | 538.57 K | 574.32 K
10000 kPa | 0.893 ± 0.014 | 0.5912 ± 0.0096 | 0.4195 ± 0.0069 | 0.2947 ± 0.0049 | 0.206 ± 0.0035 | 0.1576 ± 0.0028 | 0.129 ± 0.0024 | 0.1005 ± 0.0019 | 0.0866 ± 0.0017
20000 kPa | 0.8933 ± 0.014 | 0.589 ± 0.0096 | 0.4232 ± 0.0069 | 0.2976 ± 0.005 | 0.2107 ± 0.0036 | 0.161 ± 0.0028 | 0.1314 ± 0.0024 | 0.1027 ± 0.002 | 0.0903 ± 0.0018
30000 kPa | 0.8935 ± 0.014 | 0.5978 ± 0.0097 | 0.4275 ± 0.007 | 0.3012 ± 0.005 | 0.2132 ± 0.0037 | 0.1637 ± 0.0029 | 0.134 ± 0.0024 | 0.1058 ± 0.002 | 0.0932 ± 0.0018
